Measured values from article PMC8949366, “Synthesis of Marine Cyclopeptide Galaxamide Analogues as Potential Anticancer Agents” (Marine Drugs, 2022).
In brackets after ≈: the same amount, converted by molar mass. Several values for one entry are separate records, joined by “and”; a condition that tells them apart may be missing. Identical values can stand only once. Entries after “also recorded” stand apart in the source; their conditions may differ. Like-named read-outs stand apart in the source and are kept apart here. Square brackets hold non-standard residues; d marks the D form. Peptide text beside a SMILES is read from it.

Tests used:
MCF-7 cells [1] = assay: Hoechst 33,342 staining of nuclear morphology; format: cell-based, human; details: 72 h
Procedure: The morphological alteration of MCF-7 cells was analyzed by the method of Hoechst 33,342 staining (Figure 5). […] The pyknotic nuclei increased with the increasing concentration of these compounds.
[…] After that, the cell culture was washed with 1 mL of PBS and then added with 3 mL of 4% paraformaldehyde solution for 15 min. Then, 1 mL of the prepared Hoechst 33,342 staining solution was added. The resulting mixture was incubated at room temperature for 15 min in the dark.

MCF-7 = format: cell-based, human; details: 72 h
Procedure: (§1) Cell culture: MCF-7/MD-MAB-231 (human breast cancer cell line ATCC HTB-22/HTB-26), Hep G2 (human liver cancer cell line ATCC HB-8065), Hela (human cervical carcinoma cell line ATCC CCL-2), A459 (human lung cancer cell line ATCC CCL-185), and HUVEC (primary umbilical vein endothelial cell line ATCC PCS-100-010) were obtained from the Jinan Department of Pathology, University School of Medicine (Jinan University, Guangzhou, China). The cells were cultured in a Modified Eagle’s Medium (DMEM) including 10% fetal bovine serum, 1% penicillin-streptomycin, and antifungal agent, and cultured under standard conditions (5% CO2 atmosphere and temperature at 37 °C). The MTT method was used to evaluate the cytotoxicities of galaxamide and its analogues on the five cancerous cells. In this experiment, the number of regulated cells was 2 × 10^3 cells/well. Then, the cells, as well as galaxamide and its analogues of different concentrations (0, 2.5, 5, and 10 μg/mL), were seeded on a 96-well cell culture plate and cultured in a 37 °C, 5% CO2 incubator for 72 h. After that, 20 µL/well of MTT solution (5 mg/mL phosphate-buffered saline) was added and incubated for 5 h. The medium was discarded and replaced with 100 µL/well of DMSO to dissolve the formazan salt. The color intensity of the cell culture at 570 nm was measured using a microplate spectrophotometer (SpectroAma™ 250, Winooski, VT, USA).

MD-MBA-231 = format: cell-based, human; details: 72 h
Procedure: as §1

Hela = format: cell-based, human; details: 72 h
Procedure: as §1

HepG2 = format: cell-based, human; details: 72 h
Procedure: as §1

A549 = format: cell-based, human; details: 72 h
Procedure: as §1

HUVEC = format: cell-based, human; details: 72 h
Procedure: as §1

MCF-7 cells [2] = assay: Annexin V-FITC/PI double staining apoptosis, flow cytometry; format: cell-based, human; details: 0, 2.5, 5, 10 µg/mL, 72 h
Procedure: The Annexin V-FITC/PI double staining method was used to analyze the changes in the apoptosis of MCF-7 cells after 72 h of galaxamide, Z-3, and Z-6 exposure. […] At low concentrations, the effects of all the tested compounds were not obvious. When the concentration reached 10 μg/mL, the apoptotic effects of galaxamide, Z-3, and Z-6 on MCF-7 cells were more obvious in the late apoptotic state.
(§2) The concentration of 1 × 10^4 cells per well of MCF-7 cells were seeded in 96-well plates. The cell cultures were added to the compounds with a concentration of 0, 2.5, 5, and 10 µg/mL, and incubated for 72 h. After that, 5 µL of Annexin V-fluorescein isothiocyanate (FITC) and 5 µL of PI were added for dual staining of the cells for analysis by FACS flow cytometry. Cell cycles and apoptotic cells were determined by counting the FITC-positive and PI-negative fractions.
The apoptotic cells were quantified according to the instructions provided in an Annexin V-FITC (Sigma-Aldrich, St. Louis, MO, USA) cell apoptosis assay kit. Briefly, about 1.5 × 10^5 cells were plated in 96-well plates and treated with galaxamide and its representative analogues (0, 2.5, 5, and 10 µg/mL) for 48 h. The cells were then resuspended in a […] binding buffer. Afterward, […] of annexin V-fluorescein isothiocyanate (FITC) was added, followed by incubation in darkness at room temperature for 10 min. The cells were again resuspended in […] binding buffer and stained with […] PI. The prepared cells were then analyzed using a flow cytometry (Coulter Epics Elite, Miami, FL, USA). The cells in the FITC-positive and PI-negative fractions were regarded as apoptotic cells.

MCF-7 cells [3] = assay: Cell cycle distribution by propidium iodide staining / flow cytometry; format: cell-based, human; details: 0, 2.5, 5, 10 µg/mL, 72 h
Procedure: Therefore, propidium iodide (PI) staining method was used to further investigate the changes in the cell cycle distribution of MCF-7. In particular, MCF-7 cells were exposed to galaxamide, Z-3, and Z-6 with concentrations of 0, 2.5, 5, and 10 µg/mL for 72 h. Generally, the main effects of galaxamide, Z-3, and Z-6 on MCF-7 cells were in the G0/G1 phase. There was no obvious sub diploid peak in flow cytometry.
as §2

[4] = amide bond, 15-membered ring, PyBOP/DIEA, DCM, 0.375 mM, 25.0 °C

| SMILES | IC50 MCF-7 (MCF-7) [µg/mL] | IC50 MD-MBA-231 (MD-MBA-231) [µg/mL] | IC50 Hela (Hela) [µg/mL] | IC50 HepG2 (HepG2) [µg/mL] | IC50 A549 (A549) [µg/mL] | IC50 HUVEC (HUVEC) [µg/mL] | also measured |
| --- | --- | --- | --- | --- | --- | --- | --- |
| CC(C)C[C@@H]1NC(=O)[C@@H]2CCCN2C(=O)[C@@H](CC(C)C)NC(=O)[C@@H](CC(C)C)NC(=O)[C@@H]2CCCN2C1=O [Compound Z-6, Cyclo (D-Leu-Pro-Leu-Pro-D-Leu)] (cyclo(LP[dL][dL]P)) | 1.65 ± 0.30 (≈ 3.09 µM) | 4.59 ± 0.27 (≈ 8.6 µM) | 5.69 ± 0.37 (≈ 10.7 µM) | 2.91 ± 0.17 (≈ 5.45 µM) | 5.96 ± 0.41 (≈ 11.2 µM) | 38.72 ± 0.67 (≈ 72.5 µM) | Nuclear morphology of MCF-7 cells (in words) (MCF-7 cells [1]): the morphology of the nuclei was significantly changed; Apoptosis of MCF-7 cells (in words) (MCF-7 cells [2]): significantly higher than those of galaxamide; also recorded: concentration-dependent apoptosis; Effect on cell cycle of MCF-7 (in words) (MCF-7 cells [3]): mainly blocked the growth of cells in the G0/G1 phase |
| CC(C)C[C@@H]1NC(=O)[C@@H]2CCCN2C(=O)[C@@H](CC(C)C)NC(=O)[C@@H]2CCCN2C(=O)[C@@H](CC(C)C)NC1=O [Cyclo (Leu-Pro-D-Leu-Pro-D-Leu)] | – | – | – | – | – | – | ring closure, yield after HPLC ([4]; from H-dLeu-Pro-dLeu-Pro-Leu-OH?): 54.6% |
| CC(C)C[C@H]1NC(=O)[C@@H]2CCCN2C(=O)[C@@H](CC(C)C)NC(=O)[C@@H]2CCCN2C(=O)[C@@H](CC(C)C)NC1=O [Cyclo (D-Leu-Pro-D-Leu-Pro-D-Leu)] | – | – | – | – | – | – | ring closure, yield after HPLC ([4]; from H-dLeu-Pro-dLeu-Pro-dLeu-OH?): 46.2% |
| CC(C)C[C@@H]1NC(=O)[C@@H]2CCCN2C(=O)[C@@H](CC(C)C)NC(=O)[C@@H]2CCCN2C(=O)[C@@H](CC(C)C)NC1=O [Compound Z-7, Cyclo (Leu-Pro-D-Leu-Pro-D-Leu)] (cyclo(L[dL]P[dL]P)) | 13.28 ± 3.28 (≈ 24.9 µM) | 16.52 ± 1.70 (≈ 31 µM) | 18.21 ± 1.35 (≈ 34.1 µM) | 13.85 ± 1.99 (≈ 26 µM) | 9.97 ± 1.00 (≈ 18.7 µM) | >40 | – |
| CC(C)C[C@@H]1NC(=O)[C@@H]2CCCN2C(=O)[C@H](CC(C)C)NC(=O)[C@@H]2CCCN2C(=O)[C@H](CC(C)C)NC1=O [Cyclo (Leu-Pro-Leu-Pro-Leu)] | – | – | – | – | – | – | ring closure, yield after HPLC ([4]; from H-Leu-Pro-Leu-Pro-Leu-OH?): 35.5% and 53.9% |
| CC(C)C[C@@H]1NC(=O)[C@H](CC(C)C)N(C)C(=O)[C@H](CC(C)C)NC(=O)[C@@H]2CCCN2C(=O)[C@H](CC(C)C)NC1=O [Compound Z-1, Cyclo (Leu-N-Me-Leu-Leu-Pro-Leu)] | 5.85 ± 1.28 (≈ 10.4 µM) | 17.81 ± 0.60 (≈ 31.6 µM) | 11.56 ± 0.65 (≈ 20.5 µM) | 7.57 ± 0.17 (≈ 13.4 µM) | 4.92 ± 0.84 (≈ 8.73 µM) | >40 | – |
| CC(C)C[C@@H]1NC(=O)[C@@H]2CCCN2C(=O)[C@@H](CC(C)C)NC(=O)[C@@H]2CCCN2C(=O)[C@H](CC(C)C)NC1=O [Cyclo (Leu-Pro-D-Leu-Pro-Leu)] | – | – | – | – | – | – | ring closure, yield after HPLC ([4]; from H-Leu-Pro-dLeu-Pro-Leu-OH?): 36.4% |
| CC(C)C[C@@H]1NC(=O)[C@@H]2CCCN2C(=O)[C@H](CC(C)C)NC(=O)[C@@H]2CCCN2C(=O)[C@H](CC(C)C)NC1=O [Compound Z-2, Cyclo (Leu-Pro-Leu-Pro-Leu)] (cyclo(LLPLP)) | 4.68 ± 1.22 (≈ 8.77 µM) | 14.45 ± 1.10 (≈ 27.1 µM) | 14.50 ± 0.36 (≈ 27.2 µM) | 11.95 ± 0.64 (≈ 22.4 µM) | 7.97 ± 2.06 (≈ 14.9 µM) | >40 | – |
| CC(C)C[C@@H]1NC(=O)[C@@H]2CCCN2C(=O)[C@@H](CC(C)C)NC(=O)[C@@H]2CCCN2C(=O)[C@H](CC(C)C)NC1=O [Compound Z-5, Cyclo (Leu-Pro-Leu-Pro-D-Leu)] (cyclo(LLP[dL]P)) | 13.43 ± 1.96 (≈ 25.2 µM) | 8.48 ± 1.12 (≈ 15.9 µM) | 12.12 ± 0.95 (≈ 22.7 µM) | 14.98 ± 0.93 (≈ 28.1 µM) | 9.50 ± 1.13 (≈ 17.8 µM) | >40 | – |
| CC(C)C[C@@H]1NC(=O)[C@@H]2CCCN2C(=O)[C@H](CC(C)C)NC(=O)[C@@H]2CCCN2C(=O)[C@@H](CC(C)C)NC1=O [Compound Z-4, Cyclo (Leu-Pro-D-Leu-Pro-Leu)] (cyclo(LPL[dL]P)) | 4.88 ± 0.58 (≈ 9.14 µM) | 22.09 ± 1.12 (≈ 41.4 µM) | 7.38 ± 0.83 (≈ 13.8 µM) | 15.23 ± 1.14 (≈ 28.5 µM) | 9.85 ± 0.95 (≈ 18.5 µM) | >40 | – |
| CC(C)C[C@H]1NC(=O)[C@@H]2CCCN2C(=O)[C@@H](CC(C)C)NC(=O)[C@@H]2CCCN2C(=O)[C@@H](CC(C)C)NC1=O [Compound Z-8, Cyclo (D-Leu-Pro-D-Leu-Pro-D-Leu)] (cyclo(P[dL]P[dL][dL])) | 7.82 ± 1.18 (≈ 14.7 µM) | 20.16 ± 2.24 (≈ 37.8 µM) | 7.97 ± 0.61 (≈ 14.9 µM) | 9.00 ± 0.83 (≈ 16.9 µM) | 15.88 ± 1.42 (≈ 29.8 µM) | >40 | – |
| CC(C)C[C@@H]1NC(=O)[C@H](CC(C)C)N(C)C(=O)[C@H](CC(C)C)NC(=O)[C@@H]2CCCN2C(=O)[C@H](CC(C)C)NC1=O [Cyclo (Leu-N-Me-Leu-Leu-Pro-Leu)] | – | – | – | – | – | – | ring closure, yield after HPLC ([4]; from H-Leu-Pro-Leu-MeLeu-Leu-OH): 40.7% |
| CC(C)C[C@@H]1NC(=O)[C@@H]2CCCN2C(=O)[C@@H](CC(C)C)NC(=O)[C@@H](CC(C)C)NC(=O)[C@@H]2CCCN2C1=O [Cyclo (D-Leu-Pro-Leu-Pro-D-Leu)] | – | – | – | – | – | – | ring closure, yield after HPLC ([4]; from H-dLeu-Pro-Leu-Pro-dLeu-OH?): 34.5% |
| CC(C)C[C@@H]1NC(=O)[C@@H]2CCCN2C(=O)[C@H](CC(C)C)NC(=O)[C@@H]2CCCN2C(=O)[C@@H](CC(C)C)NC1=O [Cyclo (Leu-Pro-Leu-Pro-D-Leu)] | – | – | – | – | – | – | ring closure, yield after HPLC ([4]; from H-dLeu-Pro-Leu-Pro-Leu-OH?): 58.9% |
